Assay results from US10730883B2 (AbbVie Inc., priority 2015, dated 2020).
Values after ≈ are worked out from the molar mass of the structure shown.

Legend:
[1] = Solubility of solid state forms; type: physicochemical; conditions: Amorphous Freebase: relative to the corresponding crystalline forms
[2] = Stability of solid state forms to light and peroxide; type: physicochemical
Description: (§1) The Amorphous Freebase, however, is hygroscopic and can comprise as much as 12% by weight water at 25° C./90% relative humidity. Environmental controls potentially are required to ensure appropriate control of potency and water content during storage, dispensing, and handling of the Amorphous Freebase.
(§2) The Tartrate Hydrate, however, potentially will convert to an amorphous tartrate below 10% relative humidity, when heated, or when compressed or under shear.

[3] = Solid state accelerated stability study; type: physicochemical; conditions: for Growth of degradation products: open and closed glass vials
Description: Samples (approximately 1 mg to 2 mg) of the solid state form were weighed into glass vials and tested as described below.

[4] = Hygroscopicity / moisture sorption isotherm of solid state forms; type: physicochemical
Source text: FIG. 6A is a moisture sorption isotherm corresponding to the Amorphous Freebase (via dehydration).
FIG. 6C is a moisture sorption isotherm corresponding to the Tartrate Hydrate.
FIG. 6D is a moisture sorption isotherm corresponding to the Freebase Anhydrate Form D.
In one embodiment, the Tartrate Hydrate has a moisture sorption isotherm profile showing a weight gain of about 1% to about 2% when relative humidity is increased from about 10% relative humidity to about 90% relative humidity at a temperature of 25° C.

[5] = Moisture sorption isotherm; type: physicochemical; conditions: 90% relative humidity at 25° C.
Description: Moisture vapor isotherm data were collected with a DVS Advantage (Surface Measurement Systems Ltd, Alperton, United Kingdom). The sample powder (5 mg to 20 mg) was loaded on a tared pan of the DVS Advantage. The moisture sorption isotherm data were collected from 30-0-90-0-30% relative humidity in 10% relative humidity intervals. For each step, the dm/dt criteria was 0.001% over 5 minutes, a minimum dm/dt time of 30 minutes, and a maximum dm/dt of 120 minutes. Data was collected isothermally at 25° C. with a nitrogen flow rate of 200 cm^3/minute. The post DVS sample was kept at approximately 30% relative humidity before PXRD analysis.

Equilibrium solubility = type: physicochemical
Description: After equilibration, the mixtures were inspected to assure that the amount of excess solid was sufficient to permit re-characterization. […] The pH of aqueous suspensions was determined after equilibration. The solid phase was separated from the liquid phase by centrifugation at 3300 rpm at equilibration temperatures (i.e., 25° C. or 37° C.). The supernatant was then filtered (13 mm Acrodisc® syringe filter with 0.45μ GHP membrane, Pall® Life Sciences, Ann Arbor, Mich.) to discard the initial 2 mL (to saturate filter) and capture the last 1 mL for analysis. The filtrate was diluted as needed for quantification of the material studied by HPLC method (as detailed elsewhere herein). The physical form of the recovered solid was characterized by powder X-ray diffraction to examine whether or not phase change had occurred

[6] = Chemical stability of solid state forms in closed vials at controlled temperature and relative humidity; type: physicochemical
Description: as §1, §2

[7] = Bioavailability of solid state forms; type: in vivo; conditions: relative to the corresponding crystalline forms
[8] = general statement on the solid state form

With `CC[C@@H]1CN(C(=O)NCC(F)(F)F)C[C@@H]1c1cnc2cnc3[nH]ccc3n12` [Amorphous Freebase, (3S,4R)-3-ethyl-4-(3H-imidazo[1,2-a]pyrrolo[2,3-e]pyrazin-8-yl)-N-(2,2,2-trifluoroethyl)pyrrolidine-1-carboxamide] as the compound, how does the Solubility [1] read?
Its Solubility is “greater solubility”.

What about the “stability to light and peroxide” value [2] of the same compound?
Its value is “acceptable stability”.

And the “Growth of degradation products” value ([3]; 40° C./75% relative humidity, up to 24 weeks)?
The value was “no growth of degradation products”.

What about the “Growth of degradation products” value ([3]; 50° C./75% relative humidity, up to six weeks) of the same compound?
Its value is “no growth of degradation products”.

And the chemical stability ([3]; solid state accelerated stability study)?
Its chemical stability is “acceptable”.

And the “Change in attributes evaluated (description, crystal form, assay, impurities and water content)” value ([3]; storage conditions of the accelerated stability study)?
Its value is “No material change”.

What about the “water content (hygroscopicity)” value ([4]; 25° C./90% relative humidity) of the same compound?
The value was ≤ 12 % by weight.

What about the hygroscopicity [4, 8] of the same compound?
The hygroscopicity was “hygroscopic”.

And the “Moisture sorption (reversibly sorbs up to)” value [5]?
The value was “up to 13%”.

And the Solubility (Equilibrium solubility; FasSIF (pH 6.5 at 37° C.))?
The Solubility was 1.14 mg/mL (≈ 3 mM).

What about the Solubility (Equilibrium solubility; FedSIF (pH 5.0 at 37° C.)) of the same compound?
The Solubility was 2.13 mg/mL (≈ 5.6 mM).

What about the Solubility (Equilibrium solubility; pH 1 at 25° C.) of the same compound?
Its Solubility is >3.5 mg/mL.

What about the Solubility (Equilibrium solubility; pH 7.4 at 25° C.) of the same compound?
The Solubility was 0.68 mg/mL (≈ 1.79 mM).

What about the “degradation observed in closed vials” value ([6]; closed vials, 30° C./65% relative humidity and 40° C./75% relative humidity over 12 weeks, 50° C./75% relative humidity over 6 weeks) of the same compound?
Its value is “no degradation”.

And the chemical stability [6, 8]?
Its chemical stability is “acceptable chemical stability”.

What about the bioavailability [7] of the same compound?
The bioavailability was “increased bioavailability”.
